Assay results reported in patent US4640916A, “1,4-benzothiazine derivatives, compositions containing them and method of use” (priority 1984, dated 1987).
Structures can show the parent of a compound that is named as a salt.

Legend:
[1] = in vivo; cited from earlier work
intracellular Ca^++ = conditions: (2) Ca++ from intracellular store site; (3) Ca++ through receptor-dependent channel; cited from earlier work
[2] = cited from earlier work
[3] = tested on: contraction depending on intracellular Ca^++; assay: Intracellular Ca++ antagonism: inhibition of phenylephrine contraction of aorta strip in Ca++-free EGTA solution; type: cell-based, rabbit; conditions: Oryctolagus cuniculus, phenylephrine 10^-6 M, Ca++ 0 mM, EGTA 5 mM, read-out: Inhibitory percent (contraction depending on intracellular Ca++)
Protocol: A spiral strip of aorta of a rabbit (2-3 mm width, about 3 cm length) was allowed to equilibrate by hanging under 2 g force in a Krebs-Henseleit solution. The solution was saturated with a mixture gas 97% O2 --3% CO2, which was warmed to 37° C. The strip was moved into another Krebs-Henseleit solution containing Ca^++ OmM and EGTA 5 mM. Five minutes later, phenylephrine (10^-6 M) was added on the solution. The resulting contraction of the strip was made as the index of the contraction depending on intracellular Ca^++.

[4] = tested on: ischemic seizure induced by bilateral carotid artery occlusion; assay: Effect on the ischemic seizure induced by bilateral carotid artery occlusion in spontaneously hypertensive rats; type: in vivo; conditions: p.o.; for Time toward ischemic seizure: 1 h before occlusion; for Effect on time of the beginning of the ischemic seizure (in words): Ex. 48 at 1, 3 and 10 mg/kg, Ex. 46 at 0.3, 1 and 3 mg/kg
Protocol: Male spontaneously hypertensive rats, 20 to 22 week old, were orally given the compounds or tap water at a volume of 5 ml/kg. After 1 hour, the carotid artery was bilaterally occluded by use of silk thread under anesthesia with sodium pentobarbital (50 mg/kg, i.p.). The length of time until the ischemic seizure such as convulsion and jumping was observed was measured, immediately after the occlusion of carotid artery.

[5] = tested on: ischemic acute renal failure in rats; assay: Effect on the ischemic acute renal failure in rats; type: in vivo, Sprague-Dawley rats; conditions: for Plasma urea nitrogen (BUN): p.o., 24 h after reperfusion; for Effect on the increase in BUN (in words): Ex. 48 at 10 mg/kg, Ex. 46 at 1 and 3 mg/kg
Protocol: The left renal artery of male Sprague-Dawley rats, 6 week old, was clamped for 1 hour under anesthesia with sodium pentobarbital (50 mg/kg, i.p.). The compounds or water was orally given 1 hour before the occlusion. The compounds were again given 20 hour after the reperfusion of the blood. Twenty four hour after the reperfusion, the blood was obtained from the abdominal aorta under anesthesia for measurement of plasma urea nitrogen (BUN).

[6] = tested on: spontaneously hypertensive rats; assay: Antihypertensive action in spontaneously hypertensive rats (tail-cuff); type: in vivo; conditions: 1 h after administration
Protocol: Male 12 to 13 weeks old spontaneously hypertensive rats with about 200 mm Hg of blood pressure were used in groups of 3 individuals. Mean arterial blood pressures of these animals were measured by the tail-cuff method, then the animals were orally given 3-60 mg/kg of each test compound of this invention as 2 ml of its suspension in gum arabic. Blood pressure measurements were made again one hour after administration of each test compound.

[7] = tested on: ischemia-reperfusion-induced ventricular arrythmia in rats; assay: Effect on the ischemia-reperfusion-induced ventricular arrhythmia in rats; type: in vivo, Sprague-Dawley rats; conditions: p.o.; for Incidence of cardiac arrest (CA), rats affected/rats used / Incidence of ventricular fibrillation (VF), rats affected/rats used / Incidence of ventricular tachycardia (VT), rats affected/rats used: 10 min after reperfusion; for Effect on incidences of VT, VF and CA (in words): Ex. 48 at 1, 3 and 10 mg/kg, Ex. 46 at 0.3, 1, 3 and 10 mg/kg
Protocol: Male Sprague-Dawley rats, 9 to 10 week old, were orally given the compounds or tap water at a volume of 5 ml/kg. After 1 hour, rats were anesthetized with sodium pentobarbital (50 mg/kg, i.p.), and left anterior descending coronary artery was occluded for 5 min. with a silk thread under ventilation. The incidences of ventricular tachycardia (VT), ventricular fibrilation (VF) and cardiac arrest (CA) occurred for 10 min. after reperfusion of the blood were calculated.

[8] = tested on: contraction of the aorta strip caused by KCl; assay: Vasodilating action: inhibition of contraction of rabbit aorta strip caused by KCl; type: cell-based; conditions: Oryctolagus cuniculus, compound 10^-5 M, KCl 60 mM, 15 min pretreatment, read-out: Inhibitory percent against contraction, KCl
Protocol: (§1) A spiral strip of aorta of a rabbit (2-3 mm width, about 3 cm length) was allowed to equilibrate by hanging under 2 g force in a Krebs-Henseleit solution. The solution was saturated with a mixture gas of 97% O2 --3% CO2 which was warmed to 37° C. Inhibitory actions of compounds (10^-5 M) of this invention against contraction of the aorta strip caused by KCl (60 mM), norepinephrine (NE) (10^-6 M) or serotonin (5--HT) (10^-6 M), by treating the strip with a compound of this invention 15 minutes before the test, are shown in Table 1 as inhibitory percent.

[9] = tested on: contraction of the aorta strip caused by serotonin (5--HT); assay: Vasodilating action: inhibition of contraction of rabbit aorta strip caused by serotonin (5-HT); type: cell-based; conditions: Oryctolagus cuniculus, compound 10^-5 M, 5-HT 10^-6 M, 15 min pretreatment, read-out: Inhibitory percent against contraction, 5-HT
Protocol: as §1

[10] = tested on: contraction of the aorta strip caused by norepinephrine (NE); assay: Vasodilating action: inhibition of contraction of rabbit aorta strip caused by norepinephrine (NE); type: cell-based; conditions: Oryctolagus cuniculus, 0.25 h, compound 10^-5 M, NE 10^-6 M, 15 min pretreatment, read-out: Inhibitory percent against contraction, NE
Protocol: as §1

[11] = 1 mg/kg, control 139 ± 9 (Ex. 48), 150 ± 6 (Ex. 46)
[12] = 3 mg/kg, control 152 ± 14 (Ex. 48), 150 ± 6 (Ex. 46)
[13] = 3 mg/kg, control 20.3 ± 0.6 (Ex. 48), 25.1 ± 0.8 (Ex. 46)

COc1cc2nc(N3CCN(C(=O)c4ccco4)CC3)nc(N)c2cc1OC [prazosin]
Side effects of known drugs (in words) [1]: orthostatic hypotension often observed

CCN(CC)CCCCCCCCOC(=O)c1cc(OC)c(OC)c(OC)c1 [TMB-8]
Action on intracellular Ca++ (in words) (intracellular Ca^++): weak in their action
Antihypertensive action in vivo (in words) [2]: do not display antihypertensive action in vivo
inhibition at 100 µM ([3]; compound 10^-4 M): 58%

COC(=O)C1=C(C)NC(C)=C(C(=O)OC)C1c1ccccc1[N+](=O)[O-] [nifedipine]
Action on intracellular Ca++ (in words) (intracellular Ca^++): hardly acts on (2) and (3)

O=C1Nc2cc3c(cc2SC1CCCN1CCN(c2ccc(F)cc2)CC1)CCC3 (stereo not shown) [Example 46, 6,7-cyclopenteno-2-[3-[4-(4-fluorophenyl)-1-piperazinyl]propyl]-2H-1,4-benzothiazin-3(4H)-one.hydrochloride]
Time toward ischemic seizure ([4]; 0.1 mg/kg, control 153 ± 8): 167 ± 13 min
Time toward ischemic seizure ([4]; 0.3 mg/kg, control 143 ± 7): 190 ± 11 min
Time toward ischemic seizure [4, 11]: 217 ± 11 min
Time toward ischemic seizure [4, 12]: 279 ± 18 min
Effect on time of the beginning of the ischemic seizure (in words) [4]: prolonged the time of the beginning of the ischematic seizure in a dose-dependent manner
Plasma urea nitrogen (BUN) ([5]; 1 mg/kg, control 20.4 ± 0.4): 18.0 ± 0.7 mg/dL
Plasma urea nitrogen (BUN) [5, 13]: 19.6 ± 0.8 mg/dL
Effect on the increase in BUN (in words) [5]: inhibited the increase in BUN
Antihypertensive effect (difference of blood pressure before and after medication) ([6]; 3 mg/Kg oral): 33 ΔmmHg
Incidence of cardiac arrest (CA), rats affected/rats used ([7]; 0.3 mg/kg): 9/19
Incidence of ventricular fibrillation (VF), rats affected/rats used ([7]; 0.3 mg/kg): 9/19
Incidence of ventricular tachycardia (VT), rats affected/rats used ([7]; 0.3 mg/kg): 12/19
Incidence of cardiac arrest (CA), rats affected/rats used ([7]; 1 mg/kg): 0/12
Incidence of ventricular fibrillation (VF), rats affected/rats used ([7]; 1 mg/kg): 5/12
Incidence of ventricular tachycardia (VT), rats affected/rats used ([7]; 1 mg/kg): 7/12
Incidence of cardiac arrest (CA), rats affected/rats used ([7]; 3 mg/kg): 0/12
Incidence of ventricular fibrillation (VF), rats affected/rats used ([7]; 3 mg/kg): 2/12
Incidence of ventricular tachycardia (VT), rats affected/rats used ([7]; 3 mg/kg): 5/12
Incidence of cardiac arrest (CA), rats affected/rats used ([7]; 10 mg/kg): 0/4
Incidence of ventricular fibrillation (VF), rats affected/rats used ([7]; 10 mg/kg): 1/4
Incidence of ventricular tachycardia (VT), rats affected/rats used ([7]; 10 mg/kg): 1/4
Effect on incidences of VT, VF and CA (in words) [7]: inhibited the incidences of VT, VF and CA in a dose-dependent manner

NCCCCCCNS(=O)(=O)c1cccc2c(Cl)cccc12 [Example W-7]
Action on intracellular Ca++ (in words) (intracellular Ca^++): weak in their action

CN1CCN(CCCN2c3ccccc3Sc3ccc(C(F)(F)F)cc32)CC1 [trifluoperazine]
Side effects of known drugs (in words) [1]: side effects e.g. on the central nervous system
Action on intracellular Ca++ (in words) (intracellular Ca^++): showing antagonism against intracellular Ca^++

Cc1cccc2c1NC(=O)C(CCCN1CCN(c3ccc(F)cc3)CC1)S2 (stereo not shown) [Example 12, 2-[3-[4-(4-fluorophenyl)-1-piperazinyl]propyl]-5-methyl-2H-1,4-benzothiazin-3(4H)-one]
inhibition at 10 µM [8]: 41%
inhibition at 10 µM [9]: 96%
inhibition at 10 µM [10]: 100%
Antihypertensive effect (difference of blood pressure before and after medication) ([6]; 60 mg/Kg oral): 49 ΔmmHg
inhibition at 1 µM ([3]; compound 10^-6 M): 100%

Cc1cccc2c1NC(=O)C(CCCN1CCN(c3ccc(F)cc3)CC1)S2 (stereo not shown) [Example 48, 2-[3-[4-(4-fluorophenyl)-1-piperazinyl]propyl]-5-methyl-2H-1,4-benzothiazin-3(4H)-one]
Time toward ischemic seizure [4, 11]: 167 ± 8 min
Time toward ischemic seizure [4, 12]: 214 ± 22 min
Time toward ischemic seizure ([4]; 10 mg/kg, control 132 ± 14): 275 ± 22 min
Effect on time of the beginning of the ischemic seizure (in words) [4]: prolonged the time of the beginning of the ischematic seizure in a dose-dependent manner
Plasma urea nitrogen (BUN) [5, 13]: 18.9 ± 0.6 mg/dL
Plasma urea nitrogen (BUN) ([5]; 10 mg/kg, control 22.8 ± 1.0): 16.9 ± 0.7 mg/dL
Effect on the increase in BUN (in words) [5]: inhibited the increase in BUN
Incidence of cardiac arrest (CA), rats affected/rats used ([7]; 1 mg/kg): 3/10
Incidence of ventricular fibrillation (VF), rats affected/rats used ([7]; 1 mg/kg): 5/10
Incidence of ventricular tachycardia (VT), rats affected/rats used ([7]; 1 mg/kg): 7/10
Incidence of cardiac arrest (CA), rats affected/rats used ([7]; 3 mg/kg): 1/9
Incidence of ventricular fibrillation (VF), rats affected/rats used ([7]; 3 mg/kg): 3/9
Incidence of ventricular tachycardia (VT), rats affected/rats used ([7]; 3 mg/kg): 4/9
Incidence of cardiac arrest (CA), rats affected/rats used ([7]; 10 mg/kg): 0/6
Incidence of ventricular fibrillation (VF), rats affected/rats used ([7]; 10 mg/kg): 1/6
Incidence of ventricular tachycardia (VT), rats affected/rats used ([7]; 10 mg/kg): 1/6
Effect on incidences of VT, VF and CA (in words) [7]: inhibited the incidences of VT, VF and CA in a dose-dependent manner
